Several values for one entry are separate records, joined by “and”; a condition that tells them apart may be missing. Equal entries are not always repeated.
Tests used:
[1] = test system: LPS induced systemic inflammation of mouse brain; test: Dynamic PET/CT imaging in LPS-treated mice; assay type: in vivo; conditions: for brain uptake in LPS-treated mice relative to saline-treated mice: 24 h post LPS, frames 45-60 min
Experimental: FIG. 9A-FIG. 9D is an exemplary embodiment showing preclinical PET/CT imaging in accordance with the present disclosure. C57BI6 mice (n=4) were injected with either LPS or saline intraperitoneally. 24 h post treatments, 18F-SLN-128 (100 μCi) was injected via tail-vein into mice. Dynamic PET images were acquired from 0 min to 60 min post tail-vein injection of the radiotracer. PET/CT images as shown are a summation frames from 45-60 min. FIG. 9A is an image showing saline treated mice (control). FIG. 9B is an image showing LPS treated mice (5 μg/g, 24 h post treatment); FIG. 9C is a bar graph showing quantified uptake: % ID/cm3. FIG. 9D is a bar graph showing post imaging biodistribution: Brain Uptake (% ID/g). mean±SD, where **p<0.01 and […] is determined by an unpaired student ttest) in brains of BI6 mice (n=4) 24 h post either LPS- or saline treatments.
Systemic administration of LPS induces oxidative stress and resulting a release of inflammatory cytokines, sustained microglial activation, and neuronal cell loss in brain areas, such as the hippocampus, cerebral cortex, substantia nigra, ventral tegmental area, and thalamus, alters the levels of neurotransmitters in adult animals, and cerebellum. Thus LPS-induced inflammation provides a useful rodent model for preclinical imaging of ^18F-SLN-128. […] Finally, the brain uptake (see e.g., FIG. 9C) derived from PET imaging also correlated with 60 min post imaging quantified uptake (see e.g., FIG. 9D) indicating potential of the radiotracer for imaging endotoxin mediated brain inflammation in vivo. Mitochondrial dysfunction is a major event in the pathogenesis of Huntington disease (HD). It has also been reported that systemic 3-NP administration leads to oxidized proteins in the striatum, as well as a massive loss of striatal neurons. To evaluate potential of ^18F-SLN-128 PET imaging for 3NP-induced ROS-mediated neurodegeneration in mice, PET/CT imaging was performed.

[2] = Quantitative biodistribution in normal mice; assay type: in vivo
Experimental: FIG. 8 is a line graph showing biodistribution of 18F-SLN128 in normal BI6 mice in accordance with the present disclosure. Shown is uptake (5 min, 60 min, 2 h) in brain and other critical organs quantified in terms of percent injected dose per gram of the tissue (% ID/g).
Lipopolysaccharide (LPS), is an endotoxin, released from Gram-negative bacteria. Next, the ability of SLN128 to detect either LPS or 3-Nitropropionic acid (3-NP) induced ROS in human cells was evaluated through live-cell fluorescence imaging. LPS is detected by toll-like receptor 4 (TLR4), a broadly expressed pattern recognition receptor found both on different cell types, including glial cells, and neurons. TLR4 engagement triggers the generation of mitochondrial superoxide from electron transport complex I, which in turn promotes bacterial killing. LPS treatment also triggers increased cytokine and chemokine expression in brain thus driving inflammation. Furthermore, 3-NP is an irreversible inhibitor of mitochondrial succinate dehydrogenase (SDH), which has been used to explore the molecular mechanisms of cell death associated with mitochondrial dysfunction and neurodegeneration. […] To this end, intracellular localization of SLN-128 in either the presence or absence of mitotracker deep red (control) was simulataneously assessed in either the LPS or 3-NP stimulated human glioblastoma U87 cells (see e.g., FIG. 4). […] Further, uptake of SLN 128 in U87 cells was compared under identical conditions with mitoSOX, a probe extensively used for assessing mROS. […] To test, whether SLN128 has ability to monitor therapeutic effects in U87 cells under identical conditions, SLN128 was incubated in either presence or absence of resveratrol (commonly used for mitigating mitochondrial ROS production) under 3 different conditions. The probe uptake was quantified as corrected total cell fluorescence (CTCF) using image J as described earlier. […] (see e.g., FIG. 6). […] Uptake in brain and other critical organs was analyzed in terms of percent injected dose per gram of the tissue (% ID/g).
For comparison, brain uptake ratios of [^18F]-AVID-45 ([^18F]-Florbetapir)(2 min/2 h) and [^18F]-Florbetaben (2 min/4 h) in normal mice are 4.07 (% ID/g (brain): 2 min: 7.33±1.54; 2 h: 1.80±0.07; 7.33/1.80; 4.07) 57 and 5.0 (% ID/g (brain): 2 min: 4.77; 4 h: 0.95; 4.77/0.95; 5.02) 58, respectively.

[3] = Metabolite analysis after incubation in human serum or plasma (QC radio-HPLC); assay type: in vitro ADME; conditions: 37° C., upto 1 h
Excerpt: Oxidative imbalance and functional impairment of mitochondria may mediate pathogenesis of neurodegenerative diseases and mitochondria are among the prominent intracellular site for ROS generation. Thus, a 2nd generation redox-sensitive neuroROS tracer was designed (also identified as either as SLN 128 or 12 (noncarrier added) or ^18F-13 (PET tracer); see e.g., FIG. 2) for the detection of total ROS within cells undergoing pro-oxidative stage. While the unlabeled/noncarrier counterpart of the probe 12 was synthesized and characterized through standard analytical methods (Proton NMR, proton-decoupled 13C-NMR, HRMS, Elemental analysis), the carrier added ^18F-13 (Lab ID:18F-SLN128) was synthesized through a reaction between the tosylated precursor 11 and KF{18F}-/Kryptofix 222 and followed by deprotection of methoxymethyl ether 11 in situ with TFA as shown (see e.g., FIG. 2), purified on semipreparatory C-18 column, the desired fraction with a Rt=12 min was collected, concentrated, reconstituted in 5% ethanol/95%sterile saline and analyzed for purity on QC radio-HPLC (radiochemical yield: 15-20%; radiochemical purity >99%; specific activity:1400-1700 Ci/mmole) and identified by spiking with the noncarrier added/unlabeled counterpart. […] For analysis of metabolites, ^18F-SLN-128 was incubated with either human serum or plasma at 37° C. as a function of time and analyzed on QC Radio-HPLC.

For `COc1ccc2c(c1)N(C)C(c1ccc(O)c(OCC[18F])c1)c1cccn1-2` (stereo not drawn) [18F-SLN-128], the “brain uptake in LPS-treated mice relative to saline-treated mice” value [1] was 2.5 fold, the “brain uptake in LPS-treated mice relative to saline-treated mice” value ([1]; listed as 18F-SLN128) was 2 fold and the “retention in brains of LPS treated mice” value ([1]; compared with saline-treated counterparts) was “stable retention in brains of LPS treated mice”. For the same compound, the “brain uptake clearance ratio relative to [18F]-AV-45” value ([2]; healthy mice) was 2.9 fold, the “brain uptake clearance ratio relative to [18F]-Florbetaben” value ([2]; healthy mice) was 2.3 fold and the “clearance ratio relative to the benchmark (≥3.5) for crossing the blood-brain barrier” value ([2]; mouse, in vivo) was 3.3 fold. For the same compound, the “brain clearance ratio 5 min/60 min” value ([2]; normal mice) was 11.4 and 11.3, the “clearance from other critical organs” value ([2]; normal mice) was “excreted from other critical organs over 1 h” and the “defluorination / bone accumulation” value ([2]; normal mice) was “without defluorination (no bone accumulation)”. For the same compound, the brain uptake ([2]; normal mice, 5 min post tail-vein injection) was 4.11±0.32 % ID/g, the brain uptake ([2]; normal mice, 60 min post tail-vein injection) was 0.36±0.01 % ID/g and the “metabolic stability in human serum” value [3] was “remains non-metabolized”.

Reference: patent publication US20240226342A1, “REACTIVE OXYGEN SPECIES IMAGING AGENTS” (Washington University, priority 2022, published 2024)
